Test results taken from paper PMC11249646, “Small-Molecule Disruptors of the Interaction between Calcium- and Integrin-Binding Protein 1 and Integrin αIIbβ3 as Novel Antiplatelet Agents” (ACS Pharmacology & Translational Science, 2024).
Read-outs that look alike come from different tables or passages of the source.

Experiments:
Type in all cases: binding
[1] = molecular target: T1, CIB1 and αIIb interaction (GST-CIB1 : F-αIIb peptide) (Homo sapiens, UniProt Q99828); assay: FP assay, 384-well format (screen); design: 384-well SCREEN Efficacy (%): concentration or dose not given beside the values; conditions: for 384-well SCREEN Efficacy (%) / IC50 / 384-well SCREEN Confirm?: F-αIIb peptide; for IC50: read-out: 384-well SCREEN IC50; for 384-well SCREEN Confirm?: YES/NO
T1 construct: made in house; host or cells: BL-21 plus RIL cells (E. coli)
T1 sequence (Q99828 1-191): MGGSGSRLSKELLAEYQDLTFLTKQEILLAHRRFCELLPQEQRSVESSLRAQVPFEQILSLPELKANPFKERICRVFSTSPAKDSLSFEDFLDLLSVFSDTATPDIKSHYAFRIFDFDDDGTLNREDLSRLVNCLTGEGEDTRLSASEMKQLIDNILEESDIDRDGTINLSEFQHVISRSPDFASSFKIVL

[2] = molecular target: T2, CIB1 and αIIb interaction (CIB1-GST : F-αIIb peptide) (Homo sapiens, UniProt Q99828); assay: FP assay, 1536-well qHTS format (primary and confirmatory screen); conditions: for CONFIRMATORY SCREEN Confirm?: YES/NO call; for CONFIRMATORY SCREEN Efficacy (%) / Efficacy (%): negative = inhibition
T2 construct: made in house; host or cells: BL-21 plus RIL cells (E. coli)
T2 sequence (Q99828 1-191): T1 sequence (Q99828 1-191)

[3] = molecular target: T3, GST-CIB1 : F-scrambled peptide (Homo sapiens, UniProt Q99828); assay: FP scrambled-peptide counter screen, 1536-well format; conditions: for COUNTERSCREEN Confirm?: YES/NO call
T3 construct: made in house; host or cells: BL-21 plus RIL cells (E. coli)
T3 sequence (Q99828 1-191): T1 sequence (Q99828 1-191)

[4] = molecular target: T3, GST-CIB1 : F-scrambled peptide; assay: FP scrambled-peptide counter screen, 384-well format; conditions: F-scrambled peptide; for IC50: read-out: 384-well COUNTERSCREEN IC50; for 384-well COUNTERSCREEN Confirm?: *: Curve in opposite direction
[5] = confirmatory screen, qHTS curve class, negative sign = inhibitory curve
[6] = confirmatory screen, read-out: CONFIRMATORY SCREEN IC50
[7] = qHTS primary screen hits, Table S2
[8] = qHTS primary screen hits, Table S2, negative sign = inhibitory curve, several classes where COUNT > 1
[9] = qHTS primary screen hits, Table S2, read-out: IC50
[10] = scrambled-peptide counterscreen
[11] = scrambled-peptide counterscreen, qHTS curve class
[12] = qHTS FP screen hits, Table S2, one class per curve where COUNT > 1, negative sign = inhibitory curve
[13] = qHTS FP screen hits, Table S2, read-out: IC50
[14] = scrambled-peptide counterscreen, read-out: COUNTERSCREEN IC50

Row | Compound | 384-well SCREEN Efficacy (%) [1] | IC50 [1] | CONFIRMATORY SCREEN Confirm? ([2]; confirmatory screen) | CONFIRMATORY SCREEN Curve Class [2, 5] | CONFIRMATORY SCREEN Efficacy (%) ([2]; confirmatory screen) | IC50 [2, 6] | Efficacy (%) [2, 7] | Curve Class [2, 8] | IC50 [2, 9] | COUNTERSCREEN Efficacy (%) [3, 10] | COUNTERSCREEN Confirm? [3, 10] | COUNTERSCREEN Curve Class [3, 11] | 384-well COUNTERSCREEN Efficacy (%) [4] | IC50 [4] | 384-well SCREEN Confirm? [1] | 384-well COUNTERSCREEN Confirm? [4] | Efficacy (%) ([2]; qHTS FP screen hits, Table S2) | Curve Class [2, 12] | IC50 [2, 13] | IC50 [3, 14] | other results
1 | COc1cc(/C=C2/N=C(c3ccccc3)OC2=O)c(F)cc1OCc1ccccc1 [NCGC00168015-01] | 22% | > 120 µM | YES | -2.2 | -79% | 44.7 µM | -91% | -2.1 | 50.1 µM | -24% | YES | 4 | 32% | > 120 µM | – | – | – | – | – | – | –
2 | C=CCNc1oc(-c2ccc(-c3ccccc3)cc2)nc1C#N.O=C(O)C(F)(F)F [NCGC00183413-01] | 74% | 7.1 µM | YES | -1.2 | -66% | 17.8 µM | -28% | -1.4 | 10 µM | -17% | YES | 4 | 58% | 7.1 µM | YES | – | – | – | – | – | –
3 | Cc1cc2c(C(C)C)c(O)c(O)c(C=O)c2c(O)c1-c1c(C)cc2c(C(C)C)c(O)c(O)c(C=O)c2c1O [NCGC00261532-01] | 90% | 2.7 µM | – | – | – | – | – | – | – | – | – | – | 60% | 33 µM | YES | YES | – | – | – | – | Efficacy (%) (confirmatory screen) ([2]; confirmatory screen): -70%; Confirm? (confirmatory screen) ([2]; confirmatory screen, YES/NO): YES; Curve Class (confirmatory screen) [2, 5]: -1.4; IC50 ([2]; confirmatory screen, read-out: IC50 [μM] (confirmatory screen)): 2.8 µM; Efficacy (%) (counterscreen) ([3]; counterscreen): -63%; Curve Class (counterscreen) ([3]; counterscreen, qHTS curve class, negative sign = inhibitory curve): -1.2; IC50 ([3]; counterscreen, read-out: IC50 [μM] (counterscreen)): 7.1 µM
4 | COc1ccc2c(c1)C=C1Cn3c-2c(C2CCCCC2)c2ccc(cc23)C(=O)NS(=O)(=O)N(C)CCOCCN(C)C1=O [NCGC00482982-02] | 35% | 30.1 µM | YES | -2.2 | -52% | 39.8 µM | – | – | – | 101% | YES | – | 25% | > 120 µM | YES | YES* | -35% | -2.2 | 56.2 µM | 70.8 µM | –
5 | O=c1sc2ccccc2c(O)c1C1CC(c2ccc(-c3ccc(Br)cc3)cc2)Cc2ccccc21 (stereo not shown) [NCGC00262959-01] | 87% | > 120 µM | YES | -1.4 | -49% | 7.1 µM | – | – | – | 118% | YES | – | 156% | 25.1 µM | – | – | -38% | -1.2 | 17.8 µM | 79.4 µM | –
6 | COC(=O)[C@]12CCC(C)(C)C[C@H]1[C@H]1C(=O)C=C3[C@@]4(C)C=C(C#N)C(=O)C(C)(C)[C@@H]4CC[C@@]3(C)[C@]1(C)CC2 [NCGC00186460-01] | 77% | 3.5 µM | YES | -1.2 | -71% | 7.1 µM | – | – | – | -36% | YES | -1.2 | 29% | > 120 µM | YES | YES | -24% | – | 10.8 µM | 14.1 µM | –
7 | Cc1ccc(S(=O)(=O)Nc2nn3c(=O)c4ccccc4nc3s2)cc1C.O=C(O)C(F)(F)F [NCGC00187578-01] | 27% | > 120 µM | YES | -2.2 | -46% | 11.2 µM | -22% | -1.4 | 14.1 µM | 39% | YES | 4 | 12% | > 120 µM | – | – | – | – | – | – | –
8 | COc1ccccc1S(=O)(=O)Nc1cnccc1C(=O)Nc1nc(-c2ccccc2)cs1.O=C(O)C(F)(F)F [NCGC00344905-01] | 37% | 7.1 µM | YES | -2.2 | -79% | – | – | – | – | -15% | YES | 4 | 44% | 10 µM | YES | – | -43% | -2.2 | – | – | –
9 | O=Cc1c(-c2ccccc2)no[n+]1[O-] [NCGC00168371-01] | 73% | 14.1 µM | YES | -1.2 | -69% | 22.4 µM | -73% | – | 50.1 µM | -14% | YES | 4 | 51% | 17.7 µM | YES | Inconclusive | – | – | – | – | Confirm and Selective? ([1]; selective toward αIIb: negative curve class and/or IC50 ratio of >3-fold and/or >2-fold efficacy vs scrambled peptide): Inconclusive; Curve Class ([2]; qHTS primary screen hits, Table S2, negative sign = inhibitory curve): -2.2
10 | CN1CCCN=C1/C=C/c1cccs1.O=C(O)c1cc2ccccc2c(Cc2c(O)c(C(=O)O)cc3ccccc23)c1O [NCGC00094552-04] | 24% | – | YES | -2.4 | -39% | – | -25% | -2.4 | – | 0% | YES | 4 | 40% | – | – | – | – | – | – | – | –
